# According to paper PMC6274355, “Synthesis and Anti-HIV-1 Activity Evaluation for Novel 3a,6a-Dihydro-1H-pyrrolo[3,4-c]pyrazole-4,6-dione Derivatives” (Molecules, 2016):
# Where two headings read alike, the source gives them in different places.
# Key:
# Cytotoxicity assay (MTT) = type: cell-based; conditions: human; C8166 cells, MTT, 72 h; means of two separate experiments; read-out: CC50 (50% cytotoxic concentration)
# Description: The cytotoxicty assay was performed by 3-(4,5-dimethylthiazol-2-yl)-2,5-diphenyl tetrazoliumbromide (MTT) method. Briefly, 100 μL 4 × 10^4 C8166 cells were seeded each well with 100 μL of different concentrations of compounds in a 96-well plate. The plate was incubated 72 h at 37 °C, 5% CO2 incubator. MTT (20 μL, 5 mg/mL) was added to each well and the plate was incubated at 37 °C for 4 h. Supernatant (100 μL) was discarded and 20% SDS-50% DMF (100 μL) was added. The plates were read at 570/630 nm by a Bio-Tek Elx 800 reader (Bio-Tek Instruments, Inc., Winooski, VT, USA). The 50% cytotoxic concentration (CC50) was calculated.
# HIV-1IIIB = test: Syncytia inhibition assay (HIV-1IIIB infected C8166 cells); type: cell-based; conditions: for TI (in vitro therapeutic index, CC50 value/EC50 value): CC50 in C8166 cells / EC50 syncytia inhibition; for EC50: HIV-1IIIB infected C8166 cells, 72 h, means of two separate experiments, read-out: EC50 (50% effective concentration, reduces syncytia formation by 50%)
# Description: Target compounds 6–16 were evaluated for their inhibitory activity against HIV-1 replication in acutely infected C8166 cells in vitro according to the previously described method, and AZT was used as a positive control. The assay results of the target compounds are presented in Table 1 and Table 2, expressed as CC50, EC50 and therapeutic index (TI).
# The syncytia inhibition assay was applied by counting syncytia which were formed by HIV-1IIIB infected C8166 cells. Briefly, HIV-1IIIB supernatant and C8166 cells were seeded in a 96-well plate with different concentration of compounds. The plate was incubated in a 37 °C, 5% CO2 incubator for 72 h. Syncytia were counting under an inverted microscope and 50% effective concentration (EC50) was calculated. Therapeutic index (TI) was calculated by the ratio of CC50/EC50.
# [1] = Human immunodeficiency virus 1, C8166, 72 h
EC50 (HIV-1IIIB; [1]) [µM],EC50 (HIV-1IIIB) [µM],SMILES,CC50 at 72 h (Cytotoxicity assay (MTT)) [µM],"TI (in vitro therapeutic index, CC50 value/EC50 value) (HIV-1IIIB)"
4.5,–,"O=C1C2C(c3c(O)ccc4ccccc34)=NN(c3ccc(F)cc3)C2C(=O)N1CCc1ccc(F)cc1 (stereo not shown) [compound 13, 1-(4-Fluorophenyl)-5-[2-(4-fluorophenyl)ethyl]-3-(2-hydroxynaphthalen-1-yl)-3a,6a-dihydro-1H-pyrrolo[3,4-c]pyrazole-4,6-dione]",9.03,2.00
9.21,–,"O=C1C2C(c3ccccc3)=NN(c3ccc(F)cc3)C2C(=O)N1CCc1ccc(F)cc1 (stereo not shown) [7b, 1-(4-Fluorophenyl)-5-[2-(4-fluorophenyl)ethyl]-3-phenyl-3a,6a-dihydro-1H-pyrrolo[3,4-c]pyrazole-4,6-dione]",148,16.03
28.6,–,"COc1cccc(C2=NN(c3ccccc3)C3C(=O)N(CCc4ccc(F)cc4)C(=O)C23)c1O (stereo not shown) [15h, 5-[2-(4-Fluorophenyl)ethyl]-3-(2-hydroxy-3-methoxyphenyl)-1-phenyl-3a,6a-dihydro-1H-pyrrolo[3,4-c]pyrazole-4,6-dione]",> 436,>15.22
26.4,–,"O=C1C2C(c3cccc(O)c3O)=NN(c3ccc(F)cc3)C2C(=O)N1CCc1ccc(F)cc1 (stereo not shown) [compound 6, 3-(2,3-Dihydroxyphenyl)-1-(4-fluorophenyl)-5-[2-(4-fluorophenyl)ethyl]-3a,6a-dihydro-1H-pyrrolo[3,4-c]pyrazole-4,6-dione]",> 432,>16.37
65.9,–,"COc1cccc(C2=NN(c3ccc(F)cc3F)C3C(=O)N(CCc4ccc(F)cc4)C(=O)C23)c1O (stereo not shown) [15d, 1-(2,4-Difluorophenyl)-5-[2-(4-fluorophenyl)ethyl]-3-(2-hydroxy-3-methoxyphenyl)-3a,6a-dihydro-1H-pyrrolo[3,4-c]pyrazole-4,6-dione]",> 404,>6.12
25.5,–,"COc1cccc(C2=NN(c3ccc(Cl)cc3)C3C(=O)N(CCc4ccc(F)cc4)C(=O)C23)c1O (stereo not shown) [15c, 1-(4-Chlorophenyl)-5-[2-(4-fluorophenyl)ethyl]-3-(2-hydroxy-3-methoxyphenyl)-3a,6a-dihydro-1H-pyrrolo[3,4-c]pyrazole-4,6-dione]",166,6.52
5.37,–,"COc1c(O)cccc1C1=NN(c2ccc(F)cc2)C2C(=O)N(CCc3ccc(F)cc3)C(=O)C12 (stereo not shown) [7a, 1-(4-Fluorophenyl)-5-[2-(4-fluorophenyl)ethyl]-3-(3-hydroxy-2-methoxyphenyl)-3a,6a-dihydro-1H-pyrrolo[3,4-c]pyrazole-4,6-dione]",39.1,7.29
30.4,–,"COc1cccc(C2=NN(c3ccc(S(N)(=O)=O)cc3)C3C(=O)N(CCc4ccc(F)cc4)C(=O)C23)c1O (stereo not shown) [15g, 4-[5-[2-(4-Fluorophenyl)ethyl]-3-(2-hydroxy-3-methoxyphenyl)-4,6-dioxo-4,5,6,6a-tetrahydro-3aH-pyrrolo[3,4-c]pyrazol-1-yl]-benzenesulfonamide]",46,1.51
35.3,–,"O=C1C2C(c3ccc(O)cc3O)=NN(c3ccc(F)cc3)C2C(=O)N1CCc1ccc(F)cc1 (stereo not shown) [9a, 3-(2,4-Dihydroxyphenyl)-1-(4-fluorophenyl)-5-[2-(4-fluorophenyl)ethyl]-3a,6a-dihydro-1H-pyrrolo[3,4-c]pyrazole-4,6-dione]",173,4.91
8.52,–,"COc1ccc(C2=NN(c3ccc(F)cc3)C3C(=O)N(CCc4ccc(F)cc4)C(=O)C23)c(O)c1 (stereo not shown) [10a, 1-(4-Fluorophenyl)-5-[2-(4-fluorophenyl)ethyl]-3-(2-hydroxy-4-methoxyphenyl)-3a,6a-dihydro-1H-pyrrolo[3,4-c]pyrazole-4,6-dione]",21.4,2.51
35.6,–,"O=C1C2C(c3nccs3)=NN(c3ccc(F)cc3)C2C(=O)N1CCc1ccc(F)cc1 (stereo not shown) [14a, 1-(4-Fluorophenyl)-5-[2-(4-fluorophenyl)ethyl]-3-thiazol-2-yl-3a,6a-dihydro-1H-pyrrolo[3,4-c]pyrazole-4,6-dione]",158,4.46
18.9,–,"COc1cccc(C2=NN(c3ccc(F)cc3)C3C(=O)N(CCc4ccccc4)C(=O)C23)c1O (stereo not shown) [16d, 1-(4-Fluorophenyl)-3-(2-hydroxy-3-methoxyphenyl)-5-phenethyl-3a,6a-dihydro-1H-pyrrolo[3,4-c]pyrazole-4,6-dione]",> 436,>23.09
65.3,–,"COc1cccc(C2=NN(c3ccc(S(C)(=O)=O)cc3)C3C(=O)N(CCc4ccc(F)cc4)C(=O)C23)c1O (stereo not shown) [15f, 5-[2-(4-Fluorophenyl)ethyl]-3-(2-hydroxy-3-methoxyphenyl)-1-(4-methanesulfonylphenyl)-3a,6a-dihydro-1H-pyrrolo[3,4-c]pyrazole-4,6-dione]",> 372,>5.70
12.1,–,"COc1cccc(C2=NN(c3cccc(F)c3)C3C(=O)N(CCc4ccc(F)cc4)C(=O)C23)c1O (stereo not shown) [15a, 1-(3-Fluorophenyl)-5-[2-(4-fluorophenyl)ethyl]-3-(2-hydroxy-3-methoxyphenyl)-3a,6a-dihydro-1H-pyrrolo[3,4-c]pyrazole-4,6-dione]",129,10.67
< 5,4.1,"COc1cccc(C2=NN(c3ccc(C)cc3)C3C(=O)N(CCc4ccc(F)cc4)C(=O)C23)c1O (stereo not shown) [15i, 5-[2-(4-Fluorophenyl)ethyl]-3-(2-hydroxy-3-methoxyphenyl)-1-(4-methylphenyl)-3a,6a-dihydro-1H-pyrrolo[3,4-c]pyrazole-4,6-dione]",> 423,>103.09
21.1,–,"COc1ccc(N2N=C(c3cccc(OC)c3O)C3C(=O)N(CCc4ccc(F)cc4)C(=O)C32)cc1 (stereo not shown) [15j, 5-[2-(4-Fluorophenyl)-ethyl]-3-(2-hydroxy-3-methoxyphenyl)-1-(4-methoxyphenyl)-3a,6a-dihydro-1H-pyrrolo[3,4-c]pyrazole-4,6-dione]",> 409,>19.34
7.11,–,"O=C1C2C(c3cccc4c3OCO4)=NN(c3ccc(F)cc3)C2C(=O)N1CCc1ccc(F)cc1 (stereo not shown) [12b, 3-Benzo[1,3]dioxol-4-yl-1-(4-fluorophenyl)-5-[2-(4-fluorophenyl)ethyl]-3a,6a-dihydro-1H-pyrrolo[3,4-c]pyrazole-4,6-dione]",222,31.29
4.21,–,"O=C1C2C(c3cc(F)ccc3O)=NN(c3ccc(F)cc3)C2C(=O)N1CCc1ccc(F)cc1 (stereo not shown) [9c, 1-(4-Fluorophenyl)-5-[2-(4-fluorophenyl)ethyl]-3-(5-fluoro-2-hydroxyphenyl)-3a,6a-dihydro-1H-pyrrolo[3,4-c]pyrazole-4,6-dione]",159,37.70
87.2,–,"COc1ccc(CCN2C(=O)C3C(c4cccc(OC)c4O)=NN(c4ccc(F)cc4)C3C2=O)cc1 (stereo not shown) [16e, 1-(4-Fluorophenyl)-3-(2-hydroxy-3-methoxyphenyl)-5-[2-(4-methoxyphenyl)ethyl]-3a,6a-dihydro-1H-pyrrolo[3,4-c]pyrazole-4,6-dione]",219,2.52
41.9,–,"COc1cc([N+](=O)[O-])cc(C2=NN(c3ccc(F)cc3)C3C(=O)N(CCc4ccc(F)cc4)C(=O)C23)c1O (stereo not shown) [compound 11, 1-(4-Fluorophenyl)-5-[2-(4-fluorophenyl)ethyl]-3-(2-hydroxy-3-methoxy-5-nitrophenyl)-3a,6a-dihydro-1H-pyrrolo[3,4-c]pyrazole-4,6-dione]",90.3,2.15
26.2,–,"O=C1C2C(c3ccccn3)=NN(c3ccc(F)cc3)C2C(=O)N1CCc1ccc(F)cc1 (stereo not shown) [14b, 1-(4-Fluorophenyl)-5-[2-(4-fluorophenyl)ethyl]-3-pyridin-2-yl-3a,6a-dihydro-1H-pyrrolo[3,4-c]pyrazole-4,6-dione]",150,5.73
11.1,–,"COc1cccc(C2=NN(c3ccc(F)cc3)C3C(=O)N(CCc4ccc(F)cc4)C(=O)C23)c1OC (stereo not shown) [12a, 3-(2,3-Dimethoxyphenyl)-1-(4-fluorophenyl)-5-[2-(4-fluorophenyl)ethyl]-3a,6a-dihydro-1H-pyrrolo[3,4-c]pyrazole-4,6-dione]",> 407,>36.56
